Data: patent publication EP1935986B1, “Luminogenic and fluorogenic compounds and methods to detect molecules or conditions” (priority 2005, dated 2006)
Each block holds one molecule with its values, some of them ahead of it.

What was measured:
[1] = test system: CYP3A subfamily, CYP3A4, CYP3A5 and CYP3A7; assay: Two-step luminescent P450 screen of luciferin derivatives, selectivity for the CYP3A subfamily; format: biochemical, human; conditions: result in words
Protocol: (§1) P450s are Supersomes™ purchased from Discovery Labware (BD/Gentest). […] HLM is human liver microsomes.
(§2) 1X substrate concentration: 50 µM.

CYP4F12 = biological target: T1, CYP4F12 (Homo sapiens, UniProt Q9HCS2); assay: Two-step luminescent P450 screen of luciferin derivatives; format: biochemical; conditions: result in words
T1 construct: purchased Discovery Labware (BD/Gentest); host or cells: insect cell expression system (membrane fractions)
T1 sequence (Q9HCS2 1-524): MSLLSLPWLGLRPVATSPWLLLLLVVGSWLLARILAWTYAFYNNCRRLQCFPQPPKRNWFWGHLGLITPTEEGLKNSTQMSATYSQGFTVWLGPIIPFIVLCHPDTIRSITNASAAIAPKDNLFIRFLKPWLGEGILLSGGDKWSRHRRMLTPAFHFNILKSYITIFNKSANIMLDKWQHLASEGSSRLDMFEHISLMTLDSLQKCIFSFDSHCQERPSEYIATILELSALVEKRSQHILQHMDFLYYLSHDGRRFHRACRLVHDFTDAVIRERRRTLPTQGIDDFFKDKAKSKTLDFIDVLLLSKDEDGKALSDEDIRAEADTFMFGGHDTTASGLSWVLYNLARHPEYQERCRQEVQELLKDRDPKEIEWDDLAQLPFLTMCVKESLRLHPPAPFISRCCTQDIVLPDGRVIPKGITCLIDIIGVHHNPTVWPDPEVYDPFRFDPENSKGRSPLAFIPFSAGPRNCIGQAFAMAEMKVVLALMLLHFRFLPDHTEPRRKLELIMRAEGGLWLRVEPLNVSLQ
Protocol: as §1, §2

CYP3A4 = CYP3A4 (Homo sapiens, UniProt P08684); assay: as above; conditions: result in words
CYP3A4, sequence (P08684 2-503 limits assumed): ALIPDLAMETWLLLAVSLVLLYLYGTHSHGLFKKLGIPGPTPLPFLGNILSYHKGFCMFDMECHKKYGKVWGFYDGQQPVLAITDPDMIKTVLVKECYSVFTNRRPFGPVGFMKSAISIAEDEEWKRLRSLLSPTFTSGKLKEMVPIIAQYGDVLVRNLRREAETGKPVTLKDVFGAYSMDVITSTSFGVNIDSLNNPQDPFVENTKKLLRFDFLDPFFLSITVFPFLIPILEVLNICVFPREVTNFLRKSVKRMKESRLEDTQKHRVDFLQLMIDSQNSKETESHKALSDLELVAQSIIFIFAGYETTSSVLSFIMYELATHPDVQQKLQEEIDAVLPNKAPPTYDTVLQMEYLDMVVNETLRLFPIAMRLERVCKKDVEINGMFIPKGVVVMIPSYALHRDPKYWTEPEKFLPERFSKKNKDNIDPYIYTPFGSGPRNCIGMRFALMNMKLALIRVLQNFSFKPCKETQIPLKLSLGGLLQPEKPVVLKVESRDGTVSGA

[2] = One-step fluorogenic MAO assay with MAO-F3, control wells with H2O instead of MAO (fluorescence of the derivative); format: biochemical
Protocol: (§3) The fluorescent signal was then measured (excitation/emission = 355/460 nm) on a Fluoroskan Ascent plate fluorometer.
(§4) This 90 µl contained 35 µl 200 mM Tricine pH 8.3, 35 µl 200 mM Tricine pH 8.7 (or water), 10 µl 200 mM MgSO4, and 10 µl of each substrate dilution.

[3] = biological target: T2, human recombinant monoamine oxidase A (MAO A) (Homo sapiens, UniProt P21397); assay: One-step fluorogenic MAO assay with MAO-F3; format: biochemical; set-up: purchased Sigma Chemical Company M-7316; host or cells: baculovirus infected insect cells (microsomes)
T2 sequence (P21397 1-527): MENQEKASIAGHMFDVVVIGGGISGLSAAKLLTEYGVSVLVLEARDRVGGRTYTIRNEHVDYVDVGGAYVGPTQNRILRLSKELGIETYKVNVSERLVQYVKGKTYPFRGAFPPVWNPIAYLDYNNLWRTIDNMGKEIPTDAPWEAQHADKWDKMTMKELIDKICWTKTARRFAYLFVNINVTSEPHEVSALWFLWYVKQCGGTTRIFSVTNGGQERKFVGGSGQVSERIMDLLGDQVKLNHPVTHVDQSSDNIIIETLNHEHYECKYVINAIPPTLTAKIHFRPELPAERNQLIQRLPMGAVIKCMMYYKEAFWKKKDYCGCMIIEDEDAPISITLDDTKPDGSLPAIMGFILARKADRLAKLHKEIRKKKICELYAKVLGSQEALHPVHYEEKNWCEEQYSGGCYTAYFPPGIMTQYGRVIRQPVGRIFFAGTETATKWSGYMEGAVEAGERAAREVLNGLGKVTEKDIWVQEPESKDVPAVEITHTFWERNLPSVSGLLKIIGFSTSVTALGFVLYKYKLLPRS
Protocol: as §3, §4

[4] = biological target: T3, human recombinant monoamine oxidase B (MAO B) (Homo sapiens, UniProt P27338); assay: One-step fluorogenic MAO assay with MAO-F3; format: biochemical
T3 construct: purchased Sigma Chemical Company M-7441; host or cells: baculovirus infected insect cells (microsomes)
T3 sequence (P27338 1-520): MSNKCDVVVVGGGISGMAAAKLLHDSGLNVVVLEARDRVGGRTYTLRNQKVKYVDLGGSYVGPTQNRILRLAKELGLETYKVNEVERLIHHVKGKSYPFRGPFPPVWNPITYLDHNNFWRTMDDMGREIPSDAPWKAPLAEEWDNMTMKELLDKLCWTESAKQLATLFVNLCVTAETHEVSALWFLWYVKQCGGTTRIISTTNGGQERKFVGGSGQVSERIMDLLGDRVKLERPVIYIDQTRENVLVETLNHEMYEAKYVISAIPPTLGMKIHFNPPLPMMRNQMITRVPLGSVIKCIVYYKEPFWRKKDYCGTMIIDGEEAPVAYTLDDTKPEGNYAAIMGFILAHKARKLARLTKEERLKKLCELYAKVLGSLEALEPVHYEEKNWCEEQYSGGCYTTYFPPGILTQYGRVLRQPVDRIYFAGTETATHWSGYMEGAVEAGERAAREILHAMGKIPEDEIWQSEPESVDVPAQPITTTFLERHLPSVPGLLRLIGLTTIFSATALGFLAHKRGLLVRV
Protocol: as §3, §4

[5] = fit of Table 31, fluorescence 355/460 nm

Structure (SMILES): O=C(O)[C@H]1CSC(c2ccc3cc(OCOCc4ccccc4)ccc3n2)=N1 [6'benzyloxymethoxy-quinolylluciferin, quinolinyl luciferin benzyloxymethyl ether]
- selectivity for three members of the CYP3A subfamily [1]: selective

Structure (SMILES): CNCCCOc1ccc2c(C)cc(=O)oc2c1 [MAO-F3, 7-(4-methyl-3-N-methylaminopropoxy)coumarin]
- relative fluorescent signal, no MAO ([2]; [MAO-F3] 0.21 µM): 48
- relative fluorescent signal, no MAO ([2]; [MAO-F3] 0.84 µM): 57
- relative fluorescent signal, no MAO ([2]; [MAO-F3] 3.37 µM): 118
- relative fluorescent signal, no MAO ([2]; [MAO-F3] 6.75 µM): 197
- relative fluorescent signal, no MAO ([2]; [MAO-F3] 13.50 µM): 348
- relative fluorescent signal, no MAO ([2]; [MAO-F3] 26.99 µM): 633
- relative fluorescent signal, no MAO ([2]; [MAO-F3] 53.98 µM): 1210
- relative fluorescent signal, no MAO ([2]; [MAO-F3] 215.94 µM): 3375
- relative fluorescent signal, no MAO ([2]; [MAO-F3] 431.88 µM): 5097
- relative fluorescent signal, no MAO ([2]; [MAO-F3] 863.75 µM): 6761
- relative fluorescent signal, MAO A ([3]; [MAO-F3] 0.21 µM): 240
- relative fluorescent signal, net A ([3]; [MAO-F3] 0.21 µM): 192
- relative fluorescent signal, MAO A ([3]; [MAO-F3] 0.84 µM): 815
- relative fluorescent signal, net A ([3]; [MAO-F3] 0.84 µM): 758
- relative fluorescent signal, MAO A ([3]; [MAO-F3] 3.37 µM): 2604
- relative fluorescent signal, net A ([3]; [MAO-F3] 3.37 µM): 2486
- relative fluorescent signal, MAO A ([3]; [MAO-F3] 6.75 µM): 4129
- relative fluorescent signal, net A ([3]; [MAO-F3] 6.75 µM): 3932
- relative fluorescent signal, MAO A ([3]; [MAO-F3] 13.50 µM): 6078
- relative fluorescent signal, net A ([3]; [MAO-F3] 13.50 µM): 5730
- relative fluorescent signal, MAO A ([3]; [MAO-F3] 26.99 µM): 8461
- relative fluorescent signal, net A ([3]; [MAO-F3] 26.99 µM): 7828
- relative fluorescent signal, MAO A ([3]; [MAO-F3] 53.98 µM): 11555
- relative fluorescent signal, net A ([3]; [MAO-F3] 53.98 µM): 10345
- relative fluorescent signal, MAO A ([3]; [MAO-F3] 215.94 µM): 16721
- relative fluorescent signal, net A ([3]; [MAO-F3] 215.94 µM): 13346
- relative fluorescent signal, MAO A ([3]; [MAO-F3] 431.88 µM): 19530
- relative fluorescent signal, net A ([3]; [MAO-F3] 431.88 µM): 14433
- relative fluorescent signal, MAO A ([3]; [MAO-F3] 863.75 µM): 21154
- relative fluorescent signal, net A ([3]; [MAO-F3] 863.75 µM): 14393
- signal-to-background ratios at the Km values ([3]; fit of Table 31): about 15
- Km [3, 5]: 21 ± 1 µM
- relative fluorescent signal, MAO B ([4]; [MAO-F3] 0.21 µM): 202
- relative fluorescent signal, net B ([4]; [MAO-F3] 0.21 µM): 154
- relative fluorescent signal, MAO B ([4]; [MAO-F3] 0.84 µM): 689
- relative fluorescent signal, net B ([4]; [MAO-F3] 0.84 µM): 632
- relative fluorescent signal, MAO B ([4]; [MAO-F3] 3.37 µM): 2198
- relative fluorescent signal, net B ([4]; [MAO-F3] 3.37 µM): 2080
- relative fluorescent signal, MAO B ([4]; [MAO-F3] 6.75 µM): 3683
- relative fluorescent signal, net B ([4]; [MAO-F3] 6.75 µM): 3486
- relative fluorescent signal, MAO B ([4]; [MAO-F3] 13.50 µM): 5239
- relative fluorescent signal, net B ([4]; [MAO-F3] 13.50 µM): 4891
- relative fluorescent signal, MAO B ([4]; [MAO-F3] 26.99 µM): 7468
- relative fluorescent signal, net B ([4]; [MAO-F3] 26.99 µM): 6835
- relative fluorescent signal, MAO B ([4]; [MAO-F3] 53.98 µM): 9885
- relative fluorescent signal, net B ([4]; [MAO-F3] 53.98 µM): 8675
- relative fluorescent signal, MAO B ([4]; [MAO-F3] 215.94 µM): 14149
- relative fluorescent signal, net B ([4]; [MAO-F3] 215.94 µM): 10774
- relative fluorescent signal, MAO B ([4]; [MAO-F3] 431.88 µM): 16590
- relative fluorescent signal, net B ([4]; [MAO-F3] 431.88 µM): 11493
- relative fluorescent signal, MAO B ([4]; [MAO-F3] 863.75 µM): 17322
- relative fluorescent signal, net B ([4]; [MAO-F3] 863.75 µM): 10561
- signal-to-background ratios at the Km values ([4]; fit of Table 31): about 13
- Km [4, 5]: 16 ± 1 µM

Second part, led by results:

- selectivity for three members of the CYP3A subfamily [1]: selective
- P450 activity / selectivity with the derivative as substrate (CYP3A4): substantial activity
Structure (SMILES): Cc1cc(C)c(COc2ccc3nc(C4=N[C@@H](C(=O)O)CS4)sc3c2)c(C)c1 [6'(2,4,6-trimethylbenzyloxy)-luciferin, Luciferin 6-(2,4,6-trimethylbenzyl) ether]
- P450 activity / cross reactivity with the derivative as substrate (CYP4F12): did not show substantial cross reactivity

- selectivity for three members of the CYP3A subfamily [1]: selective
Structure (SMILES): O=C(O)[C@H]1CSC(c2nc3ccc(OCc4cc(C(F)(F)F)ccc4C(F)(F)F)cc3s2)=N1 [6'(2,5-ditrifluoromethylbenzyloxy)-luciferin]

- selectivity for three members of the CYP3A subfamily [1]: selective
- P450 activity / selectivity with the derivative as substrate (CYP3A4): substantial activity
Structure (SMILES): O=C(O)[C@H]1CSC(c2nc3ccc(OCc4ccccc4C(F)(F)F)cc3s2)=N1 [6'(o-trifluoromethylbenzyloxy)-luciferin, Luciferin 2-trifluoromethylbenzyl ether]
- P450 activity / cross reactivity with the derivative as substrate (CYP4F12): did not show substantial cross reactivity
